Assay results: patent US5989875A, “Method of process for producing L-lysine by fermentation” (priority 1995, dated 1999)
≈ marks a conversion by molar mass, not a printed value.

Experiments:
[1] = test system: GT3/pLYSC1 strain; test: Growth of GT3/pLYSC1 on M9 media containing L-lysine or AEC; type: cell-based, E. coli; conditions: for Growth of GT3/pLYSC1: M9 agar
Protocol: (§1) A transformed strain obtained by introducing pLYSC1 into the AK completely deficient strain, E. coli GT3 was designated as GT3/pLYSC1, and a transformed strain obtained by introducing pLYSC2 into the E. coli GT3 was designated as GT3/pLYSC2. A considerable amount of L-lysine was added to the minimal medium M9, and the GT3/pLYSC1 strain and the GT3/pLYSC2 strain were each cultivated. Both of the GT3/pLYSC1 strain and the GT3/pLYSC2 strain harbor plasmids containing the wild type lysC, in which AKIII encoded by lysC on the plasmids is a sole AK. The wild type AKIII as the sole AK is inhibited by L-lysine in the presence of a considerable amount of L-lysine.
(§2) The GT3/pLYSC1 strain and the GT3/pLYSC2 strain were cultivated on M9 agar plate media containing various concentrations of L-lysine or AEC, respectively. Growth inhibitory concentrations by L-lysine and AEC were examined, and a selection condition was investigated for a strain harboring a plasmid containing lysC*.
(§3) In this table, + indicates growth of transformant, ± indicates a little growth, and - indicates no growth.

[2] = test system: W3110/pdapA2 strain; test: Growth of W3110/pdapA2 on M9 media containing AEC; type: cell-based, E. coli; conditions: for Growth of W3110/pdapA2: M9 agar
Protocol: (§4) A transformed strain obtained by introducing pdapA1 into a wild type E. coli W3110 strain (available from National Institute of Genetics (Mishima-shi, Shizuoka-ken, Japan)) was designated as W3110/pdapA1, and a transformed strain obtained by introducing pdapA2 into the E. coli W3110 strain was designated as W3110/pdapA2, respectively. These two transformed strains were cultivated respectively in a minimal medium M9 having the following composition to which AEC as an analog of lysine was added. The W3110 strain with no introduced plasmid was also cultivated in the same medium as a control.
(§5) The W3110/pdapA1 strain and the W3110/pdapA2 strain obtained as described above were cultivated on M9 agar plate media containing various concentrations of AEC, respectively. Growth inhibitory concentrations by AEC were examined, and a selection condition was investigated for a strain harboring a plasmid containing dapA*.
(§6) In this table, + indicates growth of transformant, and - indicates no growth.

[3] = test system: GT3/pLYSC2 strain; test: Growth of GT3/pLYSC2 on M9 media containing L-lysine or AEC; type: cell-based, E. coli; conditions: M9 agar
Protocol: as §1, §2, §3

[4] = test system: W3110/pdapA1 strain; test: Growth of W3110/pdapA1 on M9 media containing AEC; type: cell-based, E. coli
Protocol: as §4, §5, §6

[5] = test system: W3110 strain; test: Growth of W3110 strain with no plasmid in minimal medium M9 with AEC; type: cell-based, E. coli; conditions: W3110 strain having no plasmid
Protocol: as §4

[6] = test system: AKIII; test: Enzyme activity of AKIII and inhibition by L-lysine (cell-free extract); type: biochemical, E. coli
Description: No. 24, No. 43, No. 48, No. 60, No. 80, No. 117, No. 126, No. 149, No. 150, No. 156, No. 158, No. 167, No. 169 and No. 172 were selected as representative strains of the aforementioned 14 groups. Mutant plasmids derived from pLYSC1 were recovered from each of them, and designated as pLYSC1*24, pLYSC1*43, pLYSC1*48, pLYSC1*60, pLYSC1*80, pLYSC1*117, pLYSC1*126, pLYSC1*149, pLYSC1*150, pLYSC1*156, pLYSC1*158, pLYSC1*167, pLYSC1*169 and pLYSC1*172, respectively. An AK completely deficient strain GT3 was transformed with them and the wild type pLYSC1. A cell-free extract was prepared from each of transformed strains, and the enzyme activity of AKIII was measured.
The cell-free extract (crude enzyme solution) was prepared as follows. A transformed strain was cultivated in a 2 x TY medium, and collected at an OD660 of about 0.8. Cells were washed with 0.02 M KH2 PO4 (pH 6.75)-0.03 M β-mercaptoethanol under a condition of 0° C., and the cells were disrupted by sonication (0° C., 100 W, 30 minutes×4). A disrupted cell solution was centrifuged at 33 krpm for 1 hour under a condition of 0° C. to obtain a supernatant to which ammonium sulfate was added to give 80% saturation. After centrifugation, a pellet was dissolved in 0.02 M KH2 PO4 (pH 6.75)-0.03 M β-mercaptoethanol, and stored at 0° C. overnight.
The enzyme activity of AKIII was measured in accordance with a method of Stadtman et al. (Stadtman, E. R., Cohen, G. N., LeBras, G., and Robichon-Szulmajster, H., J. Biol. Chem., 236, 2033 (1961)). Namely, a reaction solution having the following composition was incubated at 27° C. for 45 minutes, and an FeCl3 solution (2.8 N HCl 0.4 ml+12% TCA 0.4 ml+5% FeCl3 ·6H2 O/0.1 N HCl 0.7 ml) was added thereto to develop a color, and it was centrifuged followed by measurement of absorbance of a supernatant at 540 nm. The activity was indicated by an amount of hydroxamic acid generated per minute (1 U=1 μmol/min). The molar absorption coefficient was 600. Potassium aspartate was removed from the reaction solution to be used as a blank.
In measurement of the enzyme activity of AK, various concentrations of L-lysine were added to the enzyme reaction solution and the degree of inhibition by L-lysine was examined.
(§7) On the contrary, although the mutant AKIII's obtained this time had various degrees of desensitization, inhibition by L-lysine was desensitized in all of 14 species. […] The specific activity based on total protein, which might be affected by growth situations of cell and preparation of samples, was equal to or more than that of the wild type in almost all cases, and there was little problem of decrease in activity due to the introduction of mutation (Table 3). According to this fact, it was expected that an active center of AKIII was independent from a regulatory site by L-lysine with each other. In Table 3, the inhibition desensitization degree (%) refers to an AK activity in the presence of 100 mM of L-lysine compared with an AK activity in the absence of L-lysine in the reaction solution. The heat stability (%) refers to a ratio of activity maintenance after a treatment at 55° C. for 1.5 hour.

[7] = test system: AKIII; test: Heat stability of AKIII in vitro; type: biochemical, E. coli; conditions: ratio of activity maintenance after treatment at 55° C. for 1.5 hour
Description: as §7
Subsequently, the heat stability of the mutant enzymes was examined. When it is intended that an enzyme is improved to increase its activity, it is important that a created enzyme is maintained stably in cells. […]
Judging from results of investigation on the inactivation temperature of AKIII under various conditions, the ratio of activity maintenance after a treatment at 55° C. for 90 minutes was measured. […]

## NCCSC[C@H](N)C(=O)O [AEC, S-2-aminoethylcysteine]
[1]; Escherichia coli, GT3, read-out: Allotment of addition in which growth was completely suppressed
  MIC: 0.2 mM (≈ 32.8 µg/mL)
[1]; AEC 0.2 mM
  Growth of GT3/pLYSC1: -
[1]; AEC 0.4 mM
  Growth of GT3/pLYSC1: -
[1]; AEC 0.8 mM
  Growth of GT3/pLYSC1: -
[1]; AEC 1.5 mM
  Growth of GT3/pLYSC1: -
[1]; AEC 3 mM
  Growth of GT3/pLYSC1: -
[1]; AEC 6 mM
  Growth of GT3/pLYSC1: -
[1]; AEC 12 mM
  Growth of GT3/pLYSC1: -
[1]; AEC 25 mM
  Growth of GT3/pLYSC1: -
[1]; AEC 50 mM
  Growth of GT3/pLYSC1: -
[2]; Escherichia coli, read-out: Allotment of addition in which growth was suppressed
  MIC: 15 mM (≈ 2460 µg/mL)
[2]; AEC 2 mM
  Growth of W3110/pdapA2: +
[2]; AEC 4 mM
  Growth of W3110/pdapA2: +
[2]; AEC 8 mM
  Growth of W3110/pdapA2: +
[2]; AEC 15 mM
  Growth of W3110/pdapA2: -
[2]; AEC 30 mM
  Growth of W3110/pdapA2: -
[2]; AEC 60 mM
  Growth of W3110/pdapA2: -
[2]; AEC 125 mM
  Growth of W3110/pdapA2: -
[2]; AEC 250 mM
  Growth of W3110/pdapA2: -
[2]; W3110/pdapA2
  Growth in minimal medium M9 to which AEC was added: suppressed in growth
[3]; GT3/pLYSC2 strain
  Allotment of addition up to which growth was not suppressed: 3 mM
[3]; AEC 0.2 mM
  Growth of GT3/pLYSC2: ±
[3]; AEC 0.4 mM
  Growth of GT3/pLYSC2: ±
[3]; AEC 0.8 mM
  Growth of GT3/pLYSC2: ±
[3]; AEC 1.5 mM
  Growth of GT3/pLYSC2: ±
[3]; AEC 3 mM
  Growth of GT3/pLYSC2: ±
[3]; AEC 6 mM
  Growth of GT3/pLYSC2: -
[3]; AEC 12 mM
  Growth of GT3/pLYSC2: -
[3]; AEC 25 mM
  Growth of GT3/pLYSC2: -
[3]; AEC 50 mM
  Growth of GT3/pLYSC2: -
[4]; Escherichia coli, W3110/pdapA1 strain, M9 agar, read-out: Allotment of addition in which growth was suppressed
  MIC: 30 mM (≈ 4930 µg/mL)
[4]; M9 agar, AEC 2 mM
  Growth of W3110/pdapA1: +
[4]; M9 agar, AEC 4 mM
  Growth of W3110/pdapA1: +
[4]; M9 agar, AEC 8 mM
  Growth of W3110/pdapA1: +
[4]; M9 agar, AEC 15 mM
  Growth of W3110/pdapA1: +
[4]; M9 agar, AEC 30 mM
  Growth of W3110/pdapA1: -
[4]; M9 agar, AEC 60 mM
  Growth of W3110/pdapA1: -
[4]; M9 agar, AEC 125 mM
  Growth of W3110/pdapA1: -
[4]; M9 agar, AEC 250 mM
  Growth of W3110/pdapA1: -
[4]; W3110/pdapA1
  Growth in minimal medium M9 to which AEC was added: suppressed in growth
[5]
  Growth in minimal medium M9 to which AEC was added: suppressed in growth

B1: Wild type: wild type aspartokinase III of E. coli encoded by lysC, SEQ ID NO:8 (protein)
chain: MSEIVVSKFGGTSVADFDAMNRSADIVLSDANVRLVVLSASAGITNLLVALAEGLEPGERFEKLDAIRNIQFAILERLRYPNVIREEIERLLENITVLAEAAALATSPALTDELVSHGELMSTLLFVEILRERDVQAQWFDVRKVMRTNDRFGRAEPDIAALAELAALQLLPRLNEGLVITQGFIGSENKGRTTTLGRGGSDYTAALLAEALHASRVDIWTDVPGIYTTDPRVVSAAKRIDEIAFAEAAEMATFGAKVLHPATLLPAVRSDIPVFVGSSKDPRAGGTLVCNKTENPPLFRALALRRNQTLLTLHSLNMLHSRGFLAEVFGILARHNISVDLITTSEVSVALTLDTTGSTSTGDTLLTQSLLMELSALCRVEVEEGLALVALIGNDLSKACGVGKEVFGVLEPFNIRMICYGASSHNLCFLVPGEDAEQVVQKLHSNLFE
[6]; AK activity in the presence of 100 mM of L-lysine compared with AK activity in the absence of L-lysine
  Degree of desensitization of inhibition: 0%
[6]; AKIII, cell-free extract of GT3 transformants, 1 U=1 μmol/min
  Specific activity: 0.0247 U/mg protein
[6]; various concentrations of L-lysine, FIG. 6
  Inhibition of AKIII by L-lysine: strongly suffered inhibition by L-lysine
[7]
  Heat stability: 18%
